What was measured:
[1] = molecular target: Mitogen-activated protein kinase 3 (Homo sapiens, UniProt P27361); assay: DRUGMATRIX: Protein Serine/Threonine Kinase, ERK1 enzyme inhibition (substrate: Myelin Basic Protein); design: species or system Escherichia coli; conditions: Not Active = under 50% inhibition at 10 µM
[2] = molecular target: Sodium-dependent noradrenaline transporter (Homo sapiens, UniProt P23975); assay: DRUGMATRIX: Norepinephrine Transporter radioligand binding (ligand: [125I] RTI-55); format: cell membranes, MDCK, Membrane; conditions: mdck; Not Active = under 50% inhibition at 10 µM
Estrogen receptor = molecular target: T1, Estrogen receptor (Homo sapiens, UniProt P03372); conditions: sf9; further: in other assays of this panel Not Active means under 50% inhibition at 10 µM
T1 sequence (P03372 whole entry): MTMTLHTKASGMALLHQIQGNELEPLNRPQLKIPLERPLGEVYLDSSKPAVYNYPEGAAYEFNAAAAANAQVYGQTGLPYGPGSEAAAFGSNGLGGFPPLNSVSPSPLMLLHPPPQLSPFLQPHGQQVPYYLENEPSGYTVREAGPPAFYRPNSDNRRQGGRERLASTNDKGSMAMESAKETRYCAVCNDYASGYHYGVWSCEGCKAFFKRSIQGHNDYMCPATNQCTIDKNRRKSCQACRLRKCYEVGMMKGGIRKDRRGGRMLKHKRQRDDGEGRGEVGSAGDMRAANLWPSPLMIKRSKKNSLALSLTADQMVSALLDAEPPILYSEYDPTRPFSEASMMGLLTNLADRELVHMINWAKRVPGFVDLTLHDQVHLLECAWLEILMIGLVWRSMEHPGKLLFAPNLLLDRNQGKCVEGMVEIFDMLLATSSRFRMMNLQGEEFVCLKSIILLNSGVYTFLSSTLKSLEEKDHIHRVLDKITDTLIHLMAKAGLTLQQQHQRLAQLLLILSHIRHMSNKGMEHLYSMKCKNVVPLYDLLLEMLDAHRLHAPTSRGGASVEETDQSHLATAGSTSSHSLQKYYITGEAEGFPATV

[3] = molecular target: T2, 5-hydroxytryptamine receptor 1A (Rattus norvegicus, UniProt P19327); format: cell membranes, Membrane; conditions: cho-k1; further: in other assays of this panel Not Active means under 50% inhibition at 10 µM
T2 sequence (P19327 whole entry): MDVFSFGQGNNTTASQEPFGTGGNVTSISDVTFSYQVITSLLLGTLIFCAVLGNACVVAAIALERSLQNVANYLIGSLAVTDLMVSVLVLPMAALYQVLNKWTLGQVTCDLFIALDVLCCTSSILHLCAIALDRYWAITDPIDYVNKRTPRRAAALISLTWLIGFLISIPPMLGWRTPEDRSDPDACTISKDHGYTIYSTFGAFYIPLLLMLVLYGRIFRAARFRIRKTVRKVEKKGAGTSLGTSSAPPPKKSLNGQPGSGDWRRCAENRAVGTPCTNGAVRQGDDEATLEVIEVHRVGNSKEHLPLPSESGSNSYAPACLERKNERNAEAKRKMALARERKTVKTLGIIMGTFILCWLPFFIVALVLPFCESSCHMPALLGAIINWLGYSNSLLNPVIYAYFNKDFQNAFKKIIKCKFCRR

Interstitial collagenase = molecular target: T3, Interstitial collagenase (Homo sapiens, UniProt P03956); assay: biochemical; format: tissue-based, Rheumatoid synovial fibroblasts;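 further: MMP-1 enzyme inhibition assay using a peptide substrate; in other assays of this panel Not Active means under 50% inhibition at 10 µM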
T3 sequence (P03956 whole entry): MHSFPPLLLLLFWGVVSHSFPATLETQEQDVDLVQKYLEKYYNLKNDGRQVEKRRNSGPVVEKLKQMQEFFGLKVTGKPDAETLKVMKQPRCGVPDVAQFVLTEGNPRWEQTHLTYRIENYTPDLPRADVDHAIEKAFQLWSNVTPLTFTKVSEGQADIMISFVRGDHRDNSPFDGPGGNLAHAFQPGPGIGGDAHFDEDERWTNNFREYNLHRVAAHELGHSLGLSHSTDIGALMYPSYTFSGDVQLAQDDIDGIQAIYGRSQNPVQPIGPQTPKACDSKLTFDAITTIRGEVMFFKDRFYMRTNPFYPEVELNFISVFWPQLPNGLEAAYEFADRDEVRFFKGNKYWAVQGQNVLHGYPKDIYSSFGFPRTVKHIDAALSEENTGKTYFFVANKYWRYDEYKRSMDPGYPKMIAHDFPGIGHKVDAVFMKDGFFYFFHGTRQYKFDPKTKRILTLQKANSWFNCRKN

[4] = DRUGMATRIX: Imidazoline I2, Central radioligand binding (ligand: [3H] Idazoxan); format: cell membranes, Rattus norvegicus, Wistar, Cerebral cortex, Membrane; conditions: Not Active = under 50% inhibition at 10 µM
Carbonic anhydrase 2 = Carbonic anhydrase 2 (Homo sapiens, UniProt P00918); assay: DRUGMATRIX: Carbonic Anhydrase II enzyme inhibition (substrate: 4-Nitrophenyl acetate (4-NPA)); format: tissue-based, Erythrocyte; conditions: erythrocyte; Not Active = under 50% inhibition at 10 µM
[5] = molecular target: Mitogen-activated protein kinase 1 (Homo sapiens, UniProt P28482); assay: DRUGMATRIX: Protein Serine/Threonine Kinase, ERK2 enzyme inhibition (substrate: Myelin Basic Protein); design: species or system Escherichia coli; conditions: Not Active = under 50% inhibition at 10 µM
Mitogen-activated protein kinase 1, sequence (P28482 whole entry): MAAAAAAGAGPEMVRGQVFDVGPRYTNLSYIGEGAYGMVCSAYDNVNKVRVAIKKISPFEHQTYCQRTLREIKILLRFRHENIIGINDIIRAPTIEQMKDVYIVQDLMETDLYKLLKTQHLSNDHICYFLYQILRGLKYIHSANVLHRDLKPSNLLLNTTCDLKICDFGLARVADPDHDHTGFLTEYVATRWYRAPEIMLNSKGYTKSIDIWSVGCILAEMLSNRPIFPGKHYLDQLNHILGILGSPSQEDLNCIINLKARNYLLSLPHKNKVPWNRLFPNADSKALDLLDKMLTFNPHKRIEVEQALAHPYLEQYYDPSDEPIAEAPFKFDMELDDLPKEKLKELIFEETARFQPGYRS

Sodium-dependent noradrenaline transporter, sequence (P23975 whole entry): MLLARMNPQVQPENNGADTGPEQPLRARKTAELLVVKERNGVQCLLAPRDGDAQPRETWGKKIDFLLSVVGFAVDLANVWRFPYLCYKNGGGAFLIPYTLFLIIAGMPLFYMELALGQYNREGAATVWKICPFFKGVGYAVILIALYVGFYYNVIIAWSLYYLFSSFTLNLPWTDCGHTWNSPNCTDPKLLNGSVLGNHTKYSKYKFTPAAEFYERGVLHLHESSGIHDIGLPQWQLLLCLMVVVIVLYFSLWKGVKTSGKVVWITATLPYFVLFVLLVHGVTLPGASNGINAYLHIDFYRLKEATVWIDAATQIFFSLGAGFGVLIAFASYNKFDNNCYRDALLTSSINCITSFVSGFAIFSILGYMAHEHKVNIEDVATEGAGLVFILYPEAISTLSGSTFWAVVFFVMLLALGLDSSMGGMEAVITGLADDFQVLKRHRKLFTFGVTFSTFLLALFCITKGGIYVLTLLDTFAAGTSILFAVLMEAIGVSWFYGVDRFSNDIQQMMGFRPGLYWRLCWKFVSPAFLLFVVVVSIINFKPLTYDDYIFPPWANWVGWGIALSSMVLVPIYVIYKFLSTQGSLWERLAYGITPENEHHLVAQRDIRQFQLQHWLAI
Mitogen-activated protein kinase 3, sequence (P27361 whole entry): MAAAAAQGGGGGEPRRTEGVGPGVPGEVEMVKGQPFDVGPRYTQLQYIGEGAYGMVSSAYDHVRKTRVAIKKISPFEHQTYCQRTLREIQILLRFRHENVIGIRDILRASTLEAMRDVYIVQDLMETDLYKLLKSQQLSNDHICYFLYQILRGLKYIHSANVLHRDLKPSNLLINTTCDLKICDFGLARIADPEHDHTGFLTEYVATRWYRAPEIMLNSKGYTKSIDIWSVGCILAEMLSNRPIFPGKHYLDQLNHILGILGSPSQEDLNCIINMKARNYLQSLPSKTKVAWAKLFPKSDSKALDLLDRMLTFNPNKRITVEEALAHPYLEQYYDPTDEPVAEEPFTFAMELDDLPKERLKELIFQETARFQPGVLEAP

CC1=C(C(=O)O)N2C(=O)[C@@H](NC(=O)[C@H](N)c3ccccc3)[C@H]2SC1 [CEPHALEXIN ANHYDROUS]
Not Active: IC50 [1] | IC50 [2] | IC50 (Estrogen receptor) | IC50 [3] | IC50 (Interstitial collagenase) | IC50 [4] | Ki [4] | IC50 (Carbonic anhydrase 2) | IC50 [5]

O=C(N[C@H](CO)[C@H](O)c1ccc([N+](=O)[O-])cc1)C(Cl)Cl [CHLORAMPHENICOL]
Not Active: IC50 [1] | IC50 [2] | IC50 (Estrogen receptor) | IC50 [3] | IC50 (Interstitial collagenase) | IC50 [4] | Ki [4] | IC50 (Carbonic anhydrase 2) | IC50 [5]

C=C1CC[C@H](O)C/C1=C/C=C1\CCC[C@]2(C)[C@@H]([C@H](C)CCCC(C)C)CC[C@@H]12 [CHOLECALCIFEROL]
Not Active: IC50 [1] | IC50 [2] | IC50 (Estrogen receptor) | IC50 [3] | IC50 (Interstitial collagenase) | IC50 [4] | Ki [4] | IC50 (Carbonic anhydrase 2) | IC50 [5]

C[N+](C)(C)CCO.[Cl-] [CHOLINE CHLORIDE]
Not Active: IC50 [1] | IC50 [2] | IC50 (Estrogen receptor) | IC50 [3] | IC50 (Interstitial collagenase) | IC50 [4] | Ki [4] | IC50 (Carbonic anhydrase 2) | IC50 [5]

CCOC(=O)C(C)(C)Oc1ccc(Cl)cc1 [CLOFIBRATE]
Not Active: IC50 [1] | IC50 [2] | IC50 (Estrogen receptor) | IC50 [3] | IC50 (Interstitial collagenase) | IC50 [4] | Ki [4] | IC50 (Carbonic anhydrase 2) | IC50 [5]

CC(=O)OCC(=O)[C@@]1(O)CC[C@H]2[C@@H]3CCC4=CC(=O)CC[C@]4(C)[C@H]3C(=O)C[C@@]21C [CORTISONE ACETATE]
Not Active: IC50 [1] | IC50 [2] | IC50 (Estrogen receptor) | IC50 [3] | IC50 (Interstitial collagenase) | IC50 [4] | Ki [4] | IC50 (Carbonic anhydrase 2) | IC50 [5]

O=c1ccc2ccccc2o1 [COUMARIN]
Not Active: IC50 [1] | IC50 [2] | IC50 (Estrogen receptor) | IC50 [3] | IC50 (Interstitial collagenase) | IC50 [4] | Ki [4] | IC50 (Carbonic anhydrase 2) | IC50 [5]

C/C=C/C[C@@H](C)[C@@H](O)[C@H]1C(=O)N[C@@H](CC)C(=O)N(C)CC(=O)N(C)[C@@H](CC(C)C)C(=O)N[C@@H](C(C)C)C(=O)N(C)[C@@H](CC(C)C)C(=O)N[C@@H](C)C(=O)N[C@H](C)C(=O)N(C)[C@@H](CC(C)C)C(=O)N(C)[C@@H](CC(C)C)C(=O)N(C)[C@@H](C(C)C)C(=O)N1C [CYCLOSPORINE]
Not Active: IC50 [1] | IC50 [2] | IC50 (Estrogen receptor) | IC50 [3] | IC50 (Interstitial collagenase) | IC50 [4] | Ki [4] | IC50 (Carbonic anhydrase 2) | IC50 [5]

CN(C)/N=N/c1[nH]cnc1C(N)=O [DACARBAZINE]
Not Active: IC50 [1] | IC50 [2] | IC50 (Estrogen receptor) | IC50 [3] | IC50 (Interstitial collagenase) | IC50 [4] | Ki [4] | IC50 (Carbonic anhydrase 2) | IC50 [5]

COc1ccc2c(c1)[C@]13CCCC[C@@H]1[C@H](C2)N(C)CC3 [DEXTROMETHORPHAN]
Not Active: IC50 [1] | IC50 [2] | IC50 (Estrogen receptor) | IC50 [3] | IC50 (Interstitial collagenase) | IC50 [4] | Ki [4] | IC50 (Carbonic anhydrase 2) | IC50 [5]

COP(=O)(OC)OC=C(Cl)Cl [DICHLORVOS]
Not Active: IC50 [1] | IC50 [2] | IC50 (Estrogen receptor) | IC50 [3] | IC50 (Interstitial collagenase) | IC50 [4] | Ki [4] | IC50 (Carbonic anhydrase 2) | IC50 [5]

O=C(O)Cc1ccccc1Nc1c(Cl)cccc1Cl [DICLOFENAC]
Not Active: IC50 [1] | IC50 [2] | IC50 (Estrogen receptor) | IC50 [3] | IC50 (Interstitial collagenase) | IC50 [4] | Ki [4] | IC50 (Carbonic anhydrase 2) | IC50 [5]

C[C@H]1O[C@@H](O[C@H]2[C@@H](O)C[C@H](O[C@H]3[C@@H](O)C[C@H](O[C@H]4CC[C@@]5(C)[C@H](CC[C@@H]6[C@@H]5CC[C@]5(C)[C@@H](C7=CC(=O)OC7)CC[C@]65O)C4)O[C@@H]3C)O[C@@H]2C)C[C@H](O)[C@@H]1O [DIGITOXIN]
Not Active: IC50 [1] | IC50 [2] | IC50 (Estrogen receptor) | IC50 [3] | IC50 (Interstitial collagenase) | IC50 [4] | Ki [4] | IC50 (Carbonic anhydrase 2) | IC50 [5]

COc1cccc2c1C(=O)c1c(O)c3c(c(O)c1C2=O)C[C@@](O)(C(=O)CO)C[C@@H]3O[C@H]1C[C@H](N)[C@H](O)[C@H](C)O1 [DOXORUBICIN]
Not Active: IC50 [1] | IC50 [2] | IC50 (Estrogen receptor) | IC50 [3] | IC50 (Interstitial collagenase) | IC50 [4] | Ki [4] | IC50 (Carbonic anhydrase 2) | IC50 [5]

COc1cccc2c1C(=O)c1c(O)c3c(c(O)c1C2=O)C[C@@](O)(C(=O)CO)C[C@@H]3O[C@H]1C[C@H](N)[C@@H](O)[C@H](C)O1 [EPIRUBICIN]
Not Active: IC50 [1] | IC50 [2] | IC50 (Estrogen receptor) | IC50 [3] | IC50 (Interstitial collagenase) | IC50 [4] | Ki [4] | IC50 (Carbonic anhydrase 2) | IC50 [5]

CC1(C)O[C@@H]2C[C@H]3[C@@H]4C[C@H](F)C5=CC(=O)C=C[C@]5(C)[C@H]4[C@@H](O)C[C@]3(C)[C@]2(C(=O)CO)O1 [FLUNISOLIDE]
Not Active: IC50 [1] | IC50 [2] | IC50 (Estrogen receptor) | IC50 [3] | IC50 (Interstitial collagenase) | IC50 [4] | Ki [4] | IC50 (Carbonic anhydrase 2) | IC50 [5]

CC1(C)O[C@@H]2C[C@H]3[C@@H]4C[C@H](F)C5=CC(=O)C=C[C@]5(C)[C@@]4(F)[C@@H](O)C[C@]3(C)[C@]2(C(=O)CO)O1 [FLUOCINOLONE ACETONIDE]
Not Active: IC50 [1] | IC50 [2] | IC50 (Estrogen receptor) | IC50 [3] | IC50 (Interstitial collagenase) | IC50 [4] | Ki [4] | IC50 (Carbonic anhydrase 2) | IC50 [5]

CC1(C)O[C@@H]2C[C@H]3[C@@H]4C[C@H](F)C5=CC(=O)CC[C@]5(C)[C@H]4[C@@H](O)C[C@]3(C)[C@]2(C(=O)CO)O1 [FLURANDRENOLIDE]
Not Active: IC50 [1] | IC50 [2] | IC50 (Estrogen receptor) | IC50 [3] | IC50 (Interstitial collagenase) | IC50 [4] | Ki [4] | IC50 (Carbonic anhydrase 2) | IC50 [5]

CN(C)c1ccc(C(=C2C=CC(=[N+](C)C)C=C2)c2ccc(N(C)C)cc2)cc1.[Cl-] [GENTIAN VIOLET]
Not Active: IC50 [1] | IC50 [2] | IC50 (Estrogen receptor) | IC50 [3] | IC50 (Interstitial collagenase) | IC50 [4] | Ki [4] | IC50 (Carbonic anhydrase 2) | IC50 [5]

Cc1ccc(S(=O)(=O)NC(=O)NN2CC3CCCC3C2)cc1 (stereo not given) [GLICLAZIDE]
Not Active: IC50 [1] | IC50 [2] | IC50 (Estrogen receptor) | IC50 [3] | IC50 (Interstitial collagenase) | IC50 [4] | Ki [4] | IC50 (Carbonic anhydrase 2) | IC50 [5]
